PMC4503722, “Novel Phenotypic Outcomes Identified for a Public Collection of Approved Drugs from a Publicly Accessible Panel of Assays” (PLoS ONE, 2015)
Read-outs that look alike come from different tables or passages of the source.

Tests used:
hGSK3b = biological target: T1, hGSK3b (Homo sapiens, UniProt P49841); test: Cerep LANCE kinase assay hGSK3b (S1 assay 34); type: biochemical
T1 construct: purchased Cerep (LANCE kinase assay platform, contract assay)

HT-29 = test: cells; type: cell-based
hJAK2 = biological target: T2, hJAK2 (Homo sapiens, UniProt O60674); test: Cerep LANCE kinase assay hJAK2 (S1 assay 33); type: biochemical
T2 construct: purchased Cerep (LANCE kinase assay platform, contract assay)

SW480 = test: cells; type: cell-based
HCT116 = test: cells; type: cell-based
NCI-H716 cells = test: cells; type: cell-based, Human
hFLT3 = biological target: T3, hFLT3 (Homo sapiens, UniProt P36888); test: Cerep LANCE kinase assay hFLT3 (S1 assay 35); type: biochemical
T3 construct: purchased Cerep (LANCE kinase assay platform, contract assay)

INS-1E cells = test: cells; type: cell-based, rat
[1] = test system: endothelial tube formation in co-cultures of ECFCs and ADSCs treated with VEGF; test: cells; type: cell-based, human
SNU-C1 = test: cells; type: cell-based
Colo320 = test: cells; type: cell-based
hKDR = biological target: T4, hKDR (Homo sapiens, UniProt P35968); test: Cerep LANCE kinase assay hKDR (S1 assay 32); type: biochemical
T4 construct: purchased Cerep (LANCE kinase assay platform, contract assay)

hp70S6K1 (RPS6KB1) = biological target: T5, hp70S6K1 (RPS6KB1) (Homo sapiens, UniProt P23443); test: Cerep LANCE kinase assay hp70S6K1 (S1 assay 31); type: biochemical
T5 construct: purchased Cerep (LANCE kinase assay platform, contract assay)

[2] = test system: HCT116 cells treated with a GSK3β inhibitor; test: cells; type: cell-based
DLD-1 = test: cells; type: cell-based
HeLa cells = test: cells; type: cell-based; conditions: read-out: CellCycle G2/M
RKO = test: cells; type: cell-based
[3] = test system: nuclear β-catenin in C2C12 cells; test: cells; type: cell-based
[4] = Homo sapiens, HT-29, read-out: Basal_Viability ATP HT-29
[5] = Homo sapiens, SW480, read-out: Basal_Viability ATP SW480
[6] = Homo sapiens, HCT-116, read-out: Basal_Viability ATP HCT116
[7] = Homo sapiens, NCI-H716, read-out: GLP 1 Secretion
[8] = Rattus norvegicus, INS-1E, read-out: Insulin Secretion
[9] = Homo sapiens, read-out: Anti-Angiogenesis
[10] = Homo sapiens, SNU-C1, read-out: Basal_Viability ATP SNU-C1
[11] = Homo sapiens, COLO 320, read-out: Basal_Viability ATP Colo 320
[12] = kinase assay, read-out: p70S6K1
[13] = Homo sapiens, HCT-116, read-out: GSK3b inh pretreated_Viability ATP HCT116
[14] = Homo sapiens, DLD-1, read-out: Basal_Viability ATP DLD-1
[15] = Homo sapiens, RKO, read-out: Basal_Viability ATP RKO
[16] = Mus musculus, C2C12, read-out: Wnt Pathway

T2 sequence (O60674 whole entry): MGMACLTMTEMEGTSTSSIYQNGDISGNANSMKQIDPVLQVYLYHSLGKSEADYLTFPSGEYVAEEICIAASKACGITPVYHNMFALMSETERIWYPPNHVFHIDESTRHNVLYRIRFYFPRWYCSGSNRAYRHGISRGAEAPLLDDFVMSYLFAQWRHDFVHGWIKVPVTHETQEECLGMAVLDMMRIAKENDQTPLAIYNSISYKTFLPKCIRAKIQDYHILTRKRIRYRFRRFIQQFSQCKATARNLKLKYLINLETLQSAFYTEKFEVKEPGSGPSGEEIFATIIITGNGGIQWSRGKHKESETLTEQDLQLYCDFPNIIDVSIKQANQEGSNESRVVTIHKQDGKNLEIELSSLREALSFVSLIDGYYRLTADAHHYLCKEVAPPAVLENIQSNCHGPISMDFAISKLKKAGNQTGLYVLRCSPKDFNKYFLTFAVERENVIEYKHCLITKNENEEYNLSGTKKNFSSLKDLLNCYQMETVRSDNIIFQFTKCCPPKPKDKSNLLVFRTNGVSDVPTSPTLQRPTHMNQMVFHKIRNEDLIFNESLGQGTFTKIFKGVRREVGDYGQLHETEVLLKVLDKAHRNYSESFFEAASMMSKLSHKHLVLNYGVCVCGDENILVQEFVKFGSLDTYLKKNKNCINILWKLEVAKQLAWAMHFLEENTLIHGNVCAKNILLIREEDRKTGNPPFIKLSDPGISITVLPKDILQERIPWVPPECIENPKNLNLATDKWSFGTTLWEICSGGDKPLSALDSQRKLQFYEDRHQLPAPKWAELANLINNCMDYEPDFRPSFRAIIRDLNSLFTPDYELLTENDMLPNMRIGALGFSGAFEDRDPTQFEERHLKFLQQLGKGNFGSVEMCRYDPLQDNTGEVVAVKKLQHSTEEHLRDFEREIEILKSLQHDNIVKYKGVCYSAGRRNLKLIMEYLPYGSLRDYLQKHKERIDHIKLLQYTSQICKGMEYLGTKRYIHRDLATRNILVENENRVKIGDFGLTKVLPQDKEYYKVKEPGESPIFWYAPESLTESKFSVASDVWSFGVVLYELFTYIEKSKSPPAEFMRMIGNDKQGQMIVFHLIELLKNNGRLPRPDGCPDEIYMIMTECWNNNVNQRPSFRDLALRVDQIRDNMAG
T5 sequence (P23443 whole entry): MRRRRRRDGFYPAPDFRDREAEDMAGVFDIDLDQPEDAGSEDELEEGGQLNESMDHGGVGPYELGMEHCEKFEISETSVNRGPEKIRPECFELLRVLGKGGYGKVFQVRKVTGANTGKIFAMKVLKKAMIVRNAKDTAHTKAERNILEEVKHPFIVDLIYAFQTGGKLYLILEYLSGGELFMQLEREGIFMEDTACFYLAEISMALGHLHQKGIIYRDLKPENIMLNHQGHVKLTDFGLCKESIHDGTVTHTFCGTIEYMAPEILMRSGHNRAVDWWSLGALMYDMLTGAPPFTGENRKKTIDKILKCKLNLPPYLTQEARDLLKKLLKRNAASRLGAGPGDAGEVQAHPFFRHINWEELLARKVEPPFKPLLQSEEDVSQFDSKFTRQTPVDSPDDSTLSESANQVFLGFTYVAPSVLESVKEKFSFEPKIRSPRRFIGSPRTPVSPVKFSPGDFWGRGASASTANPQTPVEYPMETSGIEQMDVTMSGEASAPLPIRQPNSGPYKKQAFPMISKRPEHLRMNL
T1 sequence (P49841 whole entry): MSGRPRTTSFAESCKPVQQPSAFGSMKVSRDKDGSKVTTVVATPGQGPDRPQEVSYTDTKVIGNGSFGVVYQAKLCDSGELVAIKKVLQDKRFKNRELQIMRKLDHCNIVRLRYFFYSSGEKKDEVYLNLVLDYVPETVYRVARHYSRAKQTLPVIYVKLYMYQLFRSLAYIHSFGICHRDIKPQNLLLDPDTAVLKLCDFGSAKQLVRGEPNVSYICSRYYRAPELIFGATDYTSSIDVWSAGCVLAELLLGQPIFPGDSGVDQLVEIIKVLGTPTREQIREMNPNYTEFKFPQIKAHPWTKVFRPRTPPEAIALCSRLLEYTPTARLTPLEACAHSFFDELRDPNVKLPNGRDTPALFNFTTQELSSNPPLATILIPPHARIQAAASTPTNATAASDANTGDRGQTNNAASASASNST
T4 sequence (P35968 20-1356): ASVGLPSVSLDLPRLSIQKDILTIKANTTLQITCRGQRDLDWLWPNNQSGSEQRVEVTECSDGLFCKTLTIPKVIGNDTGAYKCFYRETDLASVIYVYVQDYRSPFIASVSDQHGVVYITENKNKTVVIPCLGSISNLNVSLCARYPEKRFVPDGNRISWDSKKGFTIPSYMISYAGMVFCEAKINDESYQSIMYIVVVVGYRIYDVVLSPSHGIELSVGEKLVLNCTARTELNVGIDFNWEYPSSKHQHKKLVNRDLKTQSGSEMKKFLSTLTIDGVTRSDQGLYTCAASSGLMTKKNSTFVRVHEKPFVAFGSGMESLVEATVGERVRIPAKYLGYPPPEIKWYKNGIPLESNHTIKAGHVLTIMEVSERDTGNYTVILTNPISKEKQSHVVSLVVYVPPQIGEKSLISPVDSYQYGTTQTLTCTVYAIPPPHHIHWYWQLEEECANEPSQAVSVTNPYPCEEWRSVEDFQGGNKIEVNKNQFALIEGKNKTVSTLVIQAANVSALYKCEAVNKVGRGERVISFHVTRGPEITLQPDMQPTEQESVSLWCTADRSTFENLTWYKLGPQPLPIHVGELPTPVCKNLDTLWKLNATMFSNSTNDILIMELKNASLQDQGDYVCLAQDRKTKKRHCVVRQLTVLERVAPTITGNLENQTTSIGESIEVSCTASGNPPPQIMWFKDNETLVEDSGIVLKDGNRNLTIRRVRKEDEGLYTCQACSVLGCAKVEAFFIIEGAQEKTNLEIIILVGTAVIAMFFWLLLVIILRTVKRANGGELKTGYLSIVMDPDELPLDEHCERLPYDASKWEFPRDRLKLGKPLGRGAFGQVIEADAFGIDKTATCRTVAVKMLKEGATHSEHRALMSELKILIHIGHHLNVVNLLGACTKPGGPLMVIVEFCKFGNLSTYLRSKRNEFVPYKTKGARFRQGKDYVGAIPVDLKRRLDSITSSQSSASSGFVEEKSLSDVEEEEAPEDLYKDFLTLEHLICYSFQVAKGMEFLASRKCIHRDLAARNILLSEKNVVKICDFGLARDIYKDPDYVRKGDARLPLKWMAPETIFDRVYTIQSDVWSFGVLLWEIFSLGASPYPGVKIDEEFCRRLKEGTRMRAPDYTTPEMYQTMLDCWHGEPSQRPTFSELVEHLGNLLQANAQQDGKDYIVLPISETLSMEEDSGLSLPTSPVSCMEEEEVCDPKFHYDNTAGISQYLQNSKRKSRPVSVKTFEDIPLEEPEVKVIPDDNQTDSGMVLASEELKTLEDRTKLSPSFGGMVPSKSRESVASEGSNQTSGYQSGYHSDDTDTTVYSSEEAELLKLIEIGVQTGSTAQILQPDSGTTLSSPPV
T3 sequence (P36888 27-993): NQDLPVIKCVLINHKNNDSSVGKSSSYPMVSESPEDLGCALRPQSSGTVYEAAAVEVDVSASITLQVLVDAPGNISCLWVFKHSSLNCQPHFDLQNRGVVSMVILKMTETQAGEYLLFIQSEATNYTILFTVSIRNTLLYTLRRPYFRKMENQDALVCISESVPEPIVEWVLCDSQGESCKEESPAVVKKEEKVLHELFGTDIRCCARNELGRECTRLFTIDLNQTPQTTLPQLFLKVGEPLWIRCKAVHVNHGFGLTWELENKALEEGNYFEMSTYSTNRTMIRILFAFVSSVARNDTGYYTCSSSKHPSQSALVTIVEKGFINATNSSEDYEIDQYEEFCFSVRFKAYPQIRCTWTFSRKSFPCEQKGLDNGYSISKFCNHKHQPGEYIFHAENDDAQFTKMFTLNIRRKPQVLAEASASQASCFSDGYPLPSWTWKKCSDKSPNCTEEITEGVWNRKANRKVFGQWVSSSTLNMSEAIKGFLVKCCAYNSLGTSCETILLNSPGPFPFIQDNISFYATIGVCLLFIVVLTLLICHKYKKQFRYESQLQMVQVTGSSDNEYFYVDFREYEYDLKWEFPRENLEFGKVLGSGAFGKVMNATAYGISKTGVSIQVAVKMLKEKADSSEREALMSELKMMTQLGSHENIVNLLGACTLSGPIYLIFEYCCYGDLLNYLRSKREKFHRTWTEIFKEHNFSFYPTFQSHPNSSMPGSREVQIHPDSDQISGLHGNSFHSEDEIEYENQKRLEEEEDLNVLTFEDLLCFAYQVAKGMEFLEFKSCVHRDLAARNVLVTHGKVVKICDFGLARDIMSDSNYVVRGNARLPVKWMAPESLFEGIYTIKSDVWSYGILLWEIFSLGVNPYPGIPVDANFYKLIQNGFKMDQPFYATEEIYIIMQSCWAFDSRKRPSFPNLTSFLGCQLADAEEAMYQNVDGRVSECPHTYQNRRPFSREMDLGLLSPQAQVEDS

O=C(CCl)c1ccc(Cl)cc1Cl [2,2',4'-Trichloroacetophenone]
IC50 (hGSK3b; read-out: GSK3b): > 20 µM
IC50 (HT-29; basal; read-out: Basal_Viability ATP HT-29): 8520 nM
IC50 (hJAK2; read-out: JAK2): > 20 µM
IC50 (SW480; basal, read-out: Basal_Viability ATP SW480): 1.25 µM
IC50 (HCT116; basal, read-out: Basal_Viability ATP HCT116): 6300 nM
EC50 (NCI-H716 cells; IC50 / EC50; NCI-H716; read-out: GLP 1 Secretion): > 10 µM
IC50 (hFLT3; read-out: FLT3): > 20 µM
EC50 (INS-1E cells; IC50 / EC50; INS-1E; read-out: Insulin Secretion): > 10 µM
IC50 ([1]; IC50 / EC50; endothelial tube area, ADSC/ECFC co-culture; read-out: Anti-Angiogenesis): 2490 nM
IC50 (SNU-C1; basal, read-out: Basal_Viability ATP SNU-C1): 2.98 µM
IC50 (Colo320; basal; read-out: Basal_Viability ATP Colo 320): 530 nM
IC50 (hKDR; read-out: KDR): > 20 µM
IC50 (hp70S6K1 (RPS6KB1); read-out: p70S6K1): > 20 µM
IC50 ([2]; GSK3b inhibitor pretreated, read-out: GSK3b inh pretreated_Viability ATP HCT116): 1100 nM
IC50 (DLD-1; basal, read-out: Basal_Viability ATP DLD-1): 2070 nM
EC50 (HeLa cells; IC50 / EC50, HeLa): > 10 µM
IC50 (RKO; basal; read-out: Basal_Viability ATP RKO): 4300 nM
EC50 ([3]; IC50 / EC50; C2C12 beta-catenin translocation; read-out: Wnt Pathway): 373 nM

COc1ccc(-c2ccc3cc(C(=O)O)ccc3c2)cc1C12CC3CC(CC(C3)C1)C2 [Adapalene]
IC50 (hGSK3b; kinase assay, read-out: GSK3b): 7.25 µM
IC50 (HT-29; [4]): 1120 nM
IC50 (hJAK2; kinase assay, read-out: JAK2): 5.57 µM
IC50 (SW480; [5]): 0.405 µM
IC50 (HCT116; [6]): 590 nM
EC50 (NCI-H716 cells; [7]): > 10 µM
IC50 (hFLT3; kinase assay, read-out: FLT3): > 20 µM
EC50 (INS-1E cells; [8]): > 10 µM
IC50 [1, 9]: 524 nM
IC50 (SNU-C1; [10]): 1.78 µM
IC50 (Colo320; [11]): 787 nM
IC50 (hKDR; kinase assay, read-out: KDR): 7.1 µM
IC50 (hp70S6K1 (RPS6KB1); [12]): > 20 µM
IC50 [2, 13]: 945 nM
IC50 (DLD-1; [14]): 597 nM
EC50 (HeLa cells; Homo sapiens, HeLa): > 10 µM
IC50 (RKO; [15]): 444 nM
EC50 [3, 16]: > 10000 nM

CCCSc1ccc2nc(NC(=O)OC)[nH]c2c1 [Albendazole]
IC50 (hGSK3b; read-out: GSK3b): > 20 µM
IC50 (HT-29; [4]): > 20000 nM
IC50 (hJAK2; read-out: JAK2): > 20 µM
IC50 (SW480; [5]): > 20 µM
IC50 (HCT116; [6]): 85.2 nM
EC50 (NCI-H716 cells; [7]): > 10 µM
IC50 (hFLT3; read-out: FLT3): > 20 µM
EC50 (INS-1E cells; [8]): > 10 µM
IC50 [1, 9]: 355 nM
IC50 (SNU-C1; [10]): > 20 µM
IC50 (Colo320; [11]): 502 nM
IC50 (hKDR; read-out: KDR): > 20 µM
IC50 (hp70S6K1 (RPS6KB1); read-out: p70S6K1): > 20 µM
IC50 [2, 13]: 154 nM
IC50 (DLD-1; [14]): 108 nM
EC50 (HeLa cells; Homo sapiens, HeLa): 0.0612 µM
IC50 (RKO; [15]): 165 nM
EC50 [3, 16]: 1280 nM

Cn1cnc([N+](=O)[O-])c1Sc1ncnc2nc[nH]c12 [Azathioprine]
IC50 (hGSK3b): > 20 µM
IC50 (HT-29; [4]): > 20000 nM
IC50 (hJAK2): > 20 µM
IC50 (SW480; [5]): 9.44 µM
IC50 (HCT116; [6]): 207 nM
EC50 (NCI-H716 cells; [7]): > 10 µM
IC50 (hFLT3): > 20 µM
EC50 (INS-1E cells; [8]): > 10 µM
IC50 [1, 9]: > 10000 nM
IC50 (SNU-C1; [10]): > 20 µM
IC50 (Colo320; [11]): 10300 nM
IC50 (hKDR): > 20 µM
IC50 (hp70S6K1 (RPS6KB1)): > 20 µM
IC50 [2, 13]: 623 nM
IC50 (DLD-1; [14]): 364 nM
EC50 (HeLa cells; Homo sapiens, HeLa): > 10 µM
IC50 (RKO; [15]): 2660 nM
EC50 [3, 16]: > 10000 nM

CC(=O)Oc1ccc(C2(c3ccc(OC(C)=O)cc3)Oc3ccccc3NC2=O)cc1 [Bisoxatin diacetate]
IC50 (hGSK3b; read-out: GSK3b): > 20 µM
IC50 (HT-29; read-out: Basal_Viability ATP HT-29): > 20000 nM
IC50 (hJAK2; read-out: JAK2): > 20 µM
IC50 (SW480; read-out: Basal_Viability ATP SW480): 9.19 µM
IC50 (HCT116; read-out: Basal_Viability ATP HCT116): 2420 nM
EC50 (NCI-H716 cells; read-out: GLP 1 Secretion): > 10 µM
IC50 (hFLT3; read-out: FLT3): > 20 µM
EC50 (INS-1E cells; read-out: Insulin Secretion): > 20 µM
IC50 ([1]; read-out: Anti-Angiogenesis): 2270 nM
IC50 (SNU-C1; read-out: Basal_Viability ATP SNU-C1): > 20 µM
IC50 (Colo320; read-out: Basal_Viability ATP Colo 320): > 20000 nM
IC50 (hKDR; read-out: KDR): > 20 µM
IC50 (hp70S6K1 (RPS6KB1); read-out: p70S6K1): > 20 µM
IC50 ([2]; read-out: GSK3b inh pretreated_Viability ATP HCT116): 3260 nM
IC50 (DLD-1; read-out: Basal_Viability ATP DLD-1): 19700 nM
EC50 (HeLa cells): > 10 µM
IC50 (RKO; read-out: Basal_Viability ATP RKO): 9230 nM
EC50 ([3]; read-out: Wnt Pathway): 14000 nM

COc1ccc2cc1Oc1ccc(cc1)C[C@H]1c3c(cc4c(c3Oc3cc5c(cc3OC)CCN(C)[C@@H]5C2)OCO4)CCN1C [Cepharanthine]
IC50 (hGSK3b; read-out: GSK3b): > 20 µM
IC50 (HT-29; Homo sapiens, HT-29; read-out: Basal_Viability ATP HT-29): 1360 nM
IC50 (hJAK2; read-out: JAK2): > 20 µM
IC50 (SW480; Homo sapiens, SW480, basal, read-out: Basal_Viability ATP SW480): 0.308 µM
IC50 (HCT116; [6]): 9540 nM
EC50 (NCI-H716 cells; Homo sapiens; IC50 / EC50; NCI-H716; read-out: GLP 1 Secretion): > 10 µM
IC50 (hFLT3; read-out: FLT3): > 20 µM
EC50 (INS-1E cells; Rattus norvegicus; IC50 / EC50; INS-1E; read-out: Insulin Secretion): > 10 µM
IC50 ([1]; Homo sapiens, IC50 / EC50; endothelial tube area, ADSC/ECFC co-culture; read-out: Anti-Angiogenesis): 3020 nM
IC50 (SNU-C1; [10]): 7.48 µM
IC50 (Colo320; Homo sapiens, COLO 320; read-out: Basal_Viability ATP Colo 320): 1430 nM
IC50 (hKDR; read-out: KDR): > 20 µM
IC50 (hp70S6K1 (RPS6KB1); read-out: p70S6K1): > 20 µM
IC50 ([2]; Homo sapiens, HCT-116, GSK3b inhibitor pretreated, read-out: GSK3b inh pretreated_Viability ATP HCT116): 3570 nM
IC50 (DLD-1; [14]): 12400 nM
EC50 (HeLa cells; Homo sapiens, HeLa, IC50 / EC50, HeLa): > 10 µM
IC50 (RKO; Homo sapiens, RKO; read-out: Basal_Viability ATP RKO): 3790 nM
EC50 ([3]; Mus musculus, C2C12, IC50 / EC50; C2C12 beta-catenin translocation; read-out: Wnt Pathway): 2050 nM

COC(=O)Nc1nc2ccc(C(=O)C3CC3)cc2[nH]1 [Ciclobendazole]
IC50 (hGSK3b; kinase assay, read-out: GSK3b): 14.9 µM
IC50 (HT-29; Homo sapiens; basal; HT-29; read-out: Basal_Viability ATP HT-29): 1680 nM
IC50 (hJAK2; kinase assay, read-out: JAK2): > 20 µM
IC50 (SW480; Homo sapiens, SW480, basal, SW480, read-out: Basal_Viability ATP SW480): > 20 µM
IC50 (HCT116; Homo sapiens, HCT-116, basal, HCT116, read-out: Basal_Viability ATP HCT116): 174 nM
EC50 (NCI-H716 cells; Homo sapiens, NCI-H716; read-out: GLP 1 Secretion): > 10 µM
IC50 (hFLT3; kinase assay, read-out: FLT3): 6.14 µM
EC50 (INS-1E cells; Rattus norvegicus, INS-1E; read-out: Insulin Secretion): > 10 µM
IC50 ([1]; Homo sapiens; read-out: Anti-Angiogenesis): 1190 nM
IC50 (SNU-C1; Homo sapiens, SNU-C1, basal, SNU-C1, read-out: Basal_Viability ATP SNU-C1): > 20 µM
IC50 (Colo320; Homo sapiens; basal; Colo 320; read-out: Basal_Viability ATP Colo 320): 156 nM
IC50 (hKDR; kinase assay, read-out: KDR): 15.1 µM
IC50 (hp70S6K1 (RPS6KB1); [12]): > 20 µM
IC50 (DLD-1; Homo sapiens, DLD-1, basal, DLD-1, read-out: Basal_Viability ATP DLD-1): 5460 nM
EC50 (HeLa cells; Homo sapiens, HeLa, S2 Table, HeLa, 20 = no response at highest concentration): 0.416 µM
IC50 (RKO; Homo sapiens; basal; RKO; read-out: Basal_Viability ATP RKO): 162 nM
EC50 ([3]; Mus musculus, C2C12; read-out: Wnt Pathway): 349 nM
